Some results are limits rather than exact numbers.

The EC50 is the concentration needed to bring the measured effect to its halfway point. The Ki is the dissociation constant of the complex between target and ligand, obtained from inhibition or displacement.

Test [1] deals with Prostaglandin E2 receptor EP4 subtype (Homo sapiens, UniProt P35408). As to the kind of experiment: Effective concentration required for prostanoid EP4 receptor activity was determined. The test is classed as functional.
The nature of test [2]: Binding affinity for prostanoid EP4 receptor.
A short description of test [3]: Binding affinity for prostanoid EP2 receptor.
The nature of test [4]: Binding affinity for prostanoid EP3 receptor.
Test [5] in a line: Binding affinity for Prostanoid EP2 receptor.

Chain of Prostaglandin E2 receptor EP4 subtype (P35408 whole entry): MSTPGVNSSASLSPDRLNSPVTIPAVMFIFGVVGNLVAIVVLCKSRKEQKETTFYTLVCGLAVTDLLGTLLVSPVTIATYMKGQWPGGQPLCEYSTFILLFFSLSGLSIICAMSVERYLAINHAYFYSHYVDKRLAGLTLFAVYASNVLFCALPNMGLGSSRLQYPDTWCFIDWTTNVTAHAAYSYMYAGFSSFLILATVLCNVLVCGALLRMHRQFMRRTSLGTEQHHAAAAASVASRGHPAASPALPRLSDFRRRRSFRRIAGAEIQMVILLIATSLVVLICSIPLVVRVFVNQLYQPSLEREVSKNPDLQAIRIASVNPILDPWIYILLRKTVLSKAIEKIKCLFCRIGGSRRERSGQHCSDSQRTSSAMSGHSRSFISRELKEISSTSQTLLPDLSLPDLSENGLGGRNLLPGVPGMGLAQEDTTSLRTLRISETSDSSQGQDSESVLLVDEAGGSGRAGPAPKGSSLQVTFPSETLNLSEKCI

In turn, `CC(C)c1cc(C[C@H](O)/C=C/[C@H]2CCCC(=O)N2CCCCCCC(=O)O)ccc1O` showed an EC50 in test [1] of 1730 nM. Moreover, the Ki in test [2] is 130 nM; in test [3] it was above 10000 nM.

On to `O=C(O)CCCSCCN1C(=O)CCC[C@@H]1CC[C@@H](O)c1ccc(C(F)(F)F)o1`, for which a half-maximal effect in test [1] (EC50) was put at 630 nM. For the same compound, the Ki was above 10000 nM in test [4], 105 nM in test [2] and above 10000 nM in test [3].

With `Cc1cc(O)ccc1-c1cccc(C(=O)CC[C@H]2CCCC(=O)N2CCCCCCC(=O)O)c1`, the EC50 in test [1] was 21000 nM.

Take `COCc1cccc(C[C@H](O)/C=C/[C@H]2CCCC(=O)N2CCCCCCC(=O)O)c1`: the EC50 in test [1] amounted to 44 nM. Also, the inhibition constant (Ki) in test [2] is 8.7 nM; in test [3], above 10000 nM.

Turning to `O=C(O)CCCSCCN1C(=O)CCC[C@@H]1/C=C/C(O)C1(c2ccccc2)CC1` (some centres not stated), the EC50 in test [1] was found to be 260 nM. For the same compound, the Ki in test [4] is above 10000 nM; in test [2], 17 nM; in test [3], above 10000 nM.

Regarding `O=C(O)CCCSCCN1C(=O)CCC[C@@H]1/C=C/[C@@H](O)CCC1CCC1`, in test [1], the EC50 amounted to 34 nM. In addition, the results for the Ki in test [4], in test [2] and in test [3] were above 10000 nM, 7.3 nM and 3800 nM, respectively.

In turn, `O=C(O)CCCSCCN1C(=O)CCC[C@@H]1/C=C/[C@@H](O)CCC1CC1` gave an EC50 in test [1] of 190 nM. Besides, the Ki is above 10000 nM in test [5], above 10000 nM in test [4] and 21 nM in test [2].

For the compound `Cc1cc(C[C@H](O)/C=C/[C@H]2CCCC(=O)N2CCCCCCC(=O)O)ccc1O`, in test [1], the midpoint of the response, the EC50, lay at 280 nM. Moreover, the Ki in test [4] is above 10000 nM; in test [2], 7.4 nM; in test [3], above 10000 nM.

`COCc1cccc(C[C@H](O)/C=C/[C@H]2CCCC(=O)N2CCSCCCC(=O)O)c1`: the response in test [1] was half-maximal at 44 nM (EC50). Moreover, the Ki in test [4] was above 10000 nM; in test [2], 22 nM; in test [3], above 10000 nM.

With `Cc1cc(O)ccc1-c1cccc([C@@H](O)CC[C@H]2CCCC(=O)N2CCCCCCC(=O)O)c1`, a half-maximal effect in test [1] (EC50) was put at 110 nM. Also, the values for the Ki in test [4], in test [2] and in test [3] were above 10000 nM, 25 nM and above 10000 nM, respectively.

Compound `CCCCC(C)(C)C(O)/C=C/[C@H]1CCCC(=O)N1CCSCCCC(=O)O` (some centres not stated) showed an EC50 in test [1] of 290 nM. Besides, the values for the Ki in test [2] and in test [3] were 86 nM and above 10000 nM, respectively.

`Cc1cc(Cl)ccc1-c1cccc([C@H](O)CC[C@H]2CCCC(=O)N2CCSCCCC(=O)O)c1`: the EC50 in test [1] is 6.1 nM. In addition, the Ki in test [4] was above 10000 nM; in test [2], 4.8 nM; in test [3], 1600 nM.

For the origin of these results see ChEMBL document CHEMBL1145246, “Lactams as prostanoid receptor ligands. Part 4: 2-Piperidones as selective EP4 receptor agonists” (Bioorg Med Chem Lett, 2005).
